In US5744355A, “cDNA cloning and expression of human liver estrogen sulfotransferase” (Mayo Foundation for Medical Education and Research, priority 1995, dated 1998):

T1: protein encoded by the human liver EST cDNA (Homo sapiens, UniProt P49888)
T1 construct: made in house; host or cells: COS-1 (ATCC CRL-1650) cells transiently transfected with EST-p91023(B); 100,000 x g supernatant used
T1 sequence (P49888 1-294): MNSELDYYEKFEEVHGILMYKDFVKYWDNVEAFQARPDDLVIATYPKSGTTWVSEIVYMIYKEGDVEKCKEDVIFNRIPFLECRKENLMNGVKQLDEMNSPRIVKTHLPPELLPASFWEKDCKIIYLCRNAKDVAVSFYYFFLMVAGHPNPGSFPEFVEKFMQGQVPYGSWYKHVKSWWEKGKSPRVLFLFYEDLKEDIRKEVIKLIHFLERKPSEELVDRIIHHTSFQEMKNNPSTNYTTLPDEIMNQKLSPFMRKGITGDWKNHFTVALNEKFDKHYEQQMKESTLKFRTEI

T2: recombinant human liver EST enzyme (Homo sapiens, UniProt P49888)
T2 sequence (P49888 1-294): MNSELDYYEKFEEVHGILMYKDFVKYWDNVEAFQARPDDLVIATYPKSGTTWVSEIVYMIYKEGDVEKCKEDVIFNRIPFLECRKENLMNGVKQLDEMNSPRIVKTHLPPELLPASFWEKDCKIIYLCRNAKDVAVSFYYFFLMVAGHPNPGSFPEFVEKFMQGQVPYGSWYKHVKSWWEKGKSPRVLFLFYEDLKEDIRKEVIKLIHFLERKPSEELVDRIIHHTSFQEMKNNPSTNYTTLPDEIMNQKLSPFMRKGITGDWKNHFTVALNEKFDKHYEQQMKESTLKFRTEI

T3: recombinant human liver DHEA ST enzyme (Homo sapiens, UniProt Q06520)
T3 sequence (Q06520 1-285): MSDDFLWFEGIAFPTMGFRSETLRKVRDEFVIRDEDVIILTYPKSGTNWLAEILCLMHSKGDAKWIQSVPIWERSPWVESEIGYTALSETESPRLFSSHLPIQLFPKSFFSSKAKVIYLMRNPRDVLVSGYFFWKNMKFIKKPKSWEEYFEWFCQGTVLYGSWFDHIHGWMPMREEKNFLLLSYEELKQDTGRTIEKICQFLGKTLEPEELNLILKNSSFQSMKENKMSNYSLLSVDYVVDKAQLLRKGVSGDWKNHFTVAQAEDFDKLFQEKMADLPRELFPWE

T4: human EST enzyme (Homo sapiens, UniProt P49888)
T4 sequence (P49888 1-294): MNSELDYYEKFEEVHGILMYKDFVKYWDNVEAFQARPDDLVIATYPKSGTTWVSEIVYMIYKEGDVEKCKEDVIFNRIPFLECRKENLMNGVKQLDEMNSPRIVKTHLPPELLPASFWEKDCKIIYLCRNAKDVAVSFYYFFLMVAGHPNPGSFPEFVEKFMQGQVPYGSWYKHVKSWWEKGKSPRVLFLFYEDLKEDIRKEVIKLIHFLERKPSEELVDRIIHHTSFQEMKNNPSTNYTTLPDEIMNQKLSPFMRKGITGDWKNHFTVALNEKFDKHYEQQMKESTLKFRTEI


Tests used:
[1] = molecular target: T1, protein encoded by the human liver EST cDNA; experiment: ST enzymatic activity after transfection of COS-1 cells with human liver EST cDNA in p91023(B); type: biochemical; conditions: for sulfation catalyzed by the protein encoded by the human liver EST cDNA: approximate values, transfected COS-1 cells; for ST enzymatic activity, EST cDNA, Average: average of two experiments; for ST enzymatic activity, EST cDNA, Average / ST enzymatic activity, EST cDNA, Expt. 1: HSS of transfected COS-1 cells
Procedure: COS-1 (ATCC No. CRL-1650) cells were transfected with an EST cDNA expression construct in the eukaryotic expression vector p91023(B) as well as with vector alone using the DEAE-dextran method (H. Luthman et al., Nucleic Acids Res., 11, 1295-1308 (1983)). Specifically, the COS-1 cells were plated in 100-mm dishes in Dulbecco's modified Eagle's medium (DMEM) supplemented with 10% fetal calf serum (FCS) at a density of 1.2×10^6 cells/dish, and were grown overnight. The EST-p91023(B)construct, a control human liver DHEA ST-p91023(B) construct, p91023(B) with no insert, or only buffer were mixed with DEAE-dextran and DMEM and were added to the cell culture dishes (J. H. McCutchan et al., J. Natl. Cancer Inst., 41, 351 (1968); R. J. Kaufman et al., Mol. Cell. Biol., 2, 946 (1989)). After 1 hour, the DEAE-dextran solution was replaced for 2 minutes by DMEM that contained 10% dimethylsulfoxide (DMSO), followed by 0.1 mM chloroquine in DMEM for 2 hours (H. Luthman et al., Nucleic Acids Res., 11, 1295 (1983)). Cells were then grown for 48 hours in DMEM supplemented with 10% FCS. After harvesting, cell pellets were washed with 5 ml of phosphate buffered saline (PBS) and were homogenized for 30 seconds in 2 ml of 5 mM potassium phosphate buffer, pH 6.5. The homogenates were centrifuged at 12,000-15,000×g for 15 minutes at 4° C., and supernatants were collected and centrifuged at 100,000×g for 1 hour at 4° C. Five μl aliquots of the 100,000×g "high-speed supernatants" (HSS) were assayed for ST enzymatic activities (Example IV).
ST activities were measured in preparations of transfected COS- 1 cells using DHEA, 4- nitrophenol and dopamine, model substrates for DHEA ST, TS PST and TL PST, respectively (Example IV). The assays were performed under optimal conditions for the measurement of these three enzyme activities in human liver preparations (N. R. C. Campbell et al., Biochem. Pharmacol., 36, 1435-1446 (1987); J. S. Hernandez et al., Drug Metab. Dispos., 20, 413-422 (1992), both of which are incorporated herein by reference). The sulfation of estrone was measured using optimal conditions for the assay of EST activity of human EST enzyme (Example III(c)).
Estrone was used as the substrate to determine optimal assay conditions and, subsequently, to characterize the properties of human EST enzyme. […] Mg^2+ is known to increase the activities of several ST enzymes (J. S. Hernandez et al., Drug Metab. Dispos., 20, 413-422 (1992); I. A. Aksoy et al., Druc, Metab. Dispos., 21, 268-276 (1993)). […]

[2] = molecular target: T2, recombinant human liver EST enzyme; experiment: Substrate kinetics (apparent Km), COS-1 expressed EST enzyme; type: biochemical; parameters: made in house; host or cells: COS-1 (ATCC CRL-1650) cells transiently transfected with EST-p91023(B); 100,000 x g supernatant used; conditions: compound as sulfate acceptor substrate; estrone 0.01 to 0.1 μM, DHEA 0.0125 to 32 μM
Procedure: (§1) Total reaction assay volume was about 200 μl . […] The tubes were vortexed after each addition.
(§2) Substrate kinetic studies designed to estimate apparent Km values were performed utilizing the EST and DHEA ST activity assays described above and in Example III. Since human liver EST enzyme and DHEA ST enzyme can both catalyze the sulfation of steroids, these studies presented an opportunity to determine apparent Km values of the two enzymes with estrone and DHEA as substrates. Both enzyme preparations were tested with a range of estrone and DHEA concentrations (Table III).
(§3) Apparent Km values were calculated by the method of Wilkinson (Biochem. J., 80, 324-332 (1961)) with a computer program written by Cleland (Nature, 198, 463-465 (1963)).

[3] = molecular target: T3, recombinant human liver DHEA ST enzyme; experiment: Substrate kinetics (apparent Km), COS-1 expressed DHEA ST enzyme; type: biochemical; parameters: made in house; host or cells: COS-1 cells transiently transfected with human liver DHEA ST-p91023(B); 100,000 x g supernatant used; conditions: compound as sulfate acceptor substrate; estrone 0.2 to 100 μM, DHEA 0.06 to 10 μM
Procedure: as §1, §2, §3

human EST enzyme = molecular target: T4, human EST enzyme; experiment: Preferred substrate and optimal assay conditions for recombinant human EST enzyme; type: biochemical
Procedure: Estrone was used as the substrate to determine optimal assay conditions and, subsequently, to characterize the properties of human EST enzyme. […] The optimal pH for the measurement of estrone ST activity with the expressed protein was approximately 6.5 in the presence of 8.2 mM potassium phosphate buffer. […] EST activity assays were subsequently performed on crude extracts from recombinant COS-1 cells expressing human EST enzyme using the optimal assay conditions thus identified: at a reaction pH of 6.5 in the presence of 1.25 mM MgCl2 with 0.05 μM estrone as the sulfate acceptor substrate, in 8.2 mM potassium phosphate buffer.

[4] = molecular target: T2, recombinant human liver EST enzyme; conditions: 150 mM NaCl; substrate estrone
Source text: Estrone was used as the substrate to determine optimal assay conditions and, subsequently, to characterize the properties of human EST enzyme. […] Mg^2+ is known to increase the activities of several ST enzymes (J. S. Hernandez et al., Drug Metab. Dispos., 20, 413-422 (1992); I. A. Aksoy et al., Druc, Metab. Dispos., 21, 268-276 (1993)).

[5] = molecular target: T3, recombinant human liver DHEA ST enzyme; conditions: 75 mM NaCl; substrate DHEA
Procedure: The previously described EST and DHEA ST activity assays were used to measure ST activities of recombinant human liver EST enzyme and DHEA ST enzyme, respectively, wherein NaCl concentration in the reaction mixture was made 0.6 to 150 mM by the addition of 5 μL of a concentrated aqueous NaCl solution prior to incubation.

[6] = Thermal inactivation of ST activity; type: physicochemical, human; conditions: 15 minutes preincubation; mean ±SEM
Procedure: Aliquots of recombinant COS-1 cell extracts were incubated at 31°, 33°, 35°, 37°, 39°, 41°, 43° or 45° C. for 15 minutes prior to assay to determine thermal inactivation parameters. […] For the thermal inactivation experiment, aliquots of HSS from COS-1 cells transfected with EST cDNA or DHEA ST cDNA were diluted 1:2 (v/v) with 5 mM potassium phosphate buffer, pH 6.5, preincubated at various temperatures for 15 minutes and was then placed on ice. An aliquot of the same preparation was kept on ice as a control. Each aliquot was then diluted further for assay of the ST activity being measured. Values for controls were determined at each temperature studied. Data obtained during thermal inactivation and DCNP inhibition studies were analyzed with the GraphPAD InPlot curve-fitting program (GraphPAD InPlot Software, San Diego, Calif.).

[7] = first EST cDNA column, estrone 0.05 μM, DHEA 5 μM, 4-nitrophenol 4 μM, dopamine 60 μM, 1 unit = 1 nmol sulfated product per hour at 37° C.
[8] = second EST cDNA column, same substrate concentrations

Molecule	sulfation catalyzed by the protein encoded by the human liver EST cDNA [1]	ST enzymatic activity, EST cDNA, Average [1]	ST enzymatic activity, EST cDNA, Expt. 1 [1, 7]	ST enzymatic activity, EST cDNA, Expt. 1 [1, 8]	also measured
O=[N+]([O-])c1ccc(O)cc1 [4-Nitrophenol, 4-nitrophenol]	~ 5 units/mg protein	5.2 units/mg protein	3.4 units/mg protein	6.9 units/mg protein	–
C[C@]12CC[C@H](O)CC1=CC[C@@H]1[C@@H]2CC[C@]2(C)C(=O)CC[C@@H]12 [DHEA, dehydroepiandrosterone]	~ 2 units/mg protein	2.3 units/mg protein	1.3 units/mg protein	3.3 units/mg protein	Km [2]: 0.85 µM; Km [3]: 2.6 µM
NCCc1ccc(O)c(O)c1 [Dopamine, dopamine]	not	0.0 units/mg protein	0.0 units/mg protein	0.0 units/mg protein	–
C[C@]12CC[C@@H]3c4ccc(O)cc4CC[C@H]3[C@@H]1CCC2=O [Estrone]	~ 9 units/mg protein	8.8 units/mg protein	6.0 units/mg protein	11.5 units/mg protein	sulfotransferase activity relative to other sulfate acceptor substrates (human EST enzyme; compared with estradiol-17β, ethinyl estradiol, or DHEA): greater sulfotransferase activity; estrone concentration giving maximal enzymatic activity (human EST enzyme; range 0.01 to 0.10 μM tested): 0.05 µM; Km [2]: 0.17 µM; Km [3]: 3.1 µM
[Cl-].[Cl-].[Mg+2] [Mg^2+, MgCl2]	–	–	–	–	increase of EST activity (human EST enzyme; 1.25 mM Mg2+, estrone as substrate): 20%
[Cl-].[Na+] [NaCl]	–	–	–	–	increase of EST activity [4]: 86%; peak activation of DHEA ST activity [5]: 62%
EST enzyme: recombinant human liver estrogen sulfotransferase (SEQ ID NO:2) expressed in COS-1 cells (protein) MNSELDYYEKFEEVHGILMYKDFVKYWDNVEAFQARPDDLVIATYPKSGTTWVSEIVYMIYKEGDVEKCKEDVIFNRIPFLECRKENLMNGVKQLDEMNSPRIVKTHLPPELLPASFWEKDCKIIYLCRNAKDVAVSFYYFFLMVAGHPNPGSFPEFVEKFMQGQVPYGSWYKHVKSWWEKGKSPRVLFLFYEDLKEDIRKEVIKLIHFLERKPSEELVDRIIHHTSFQEMKNNPSTNYTTLPDEIMNQKLSPFMRKGITGDWKNHFTVALNEKFDKHYEQQMKESTLKFRTEI	–	–	–	–	temperature at which 50% inactivation of activity occurred [6]: 38.2±0.12 °C
